Assay results: patent publication EP1266655A1, “ENTERIC GRANULAR PREPARATIONS OF HARDLY WATER SOLUBLE DRUGS CHARACTERIZED BY CONTAINING WATER-REPELLENT COMPONENT” (SHIONOGI & CO., LTD., priority 2000, dated 2001)
Converted amounts (≈) assume the structure as drawn.

Test: Solubility of Compound A in several test solutions
Format: physicochemical
Source text: Compound A was used as an insoluble active ingredient in the following references and examples.

SMILES: CC1(C)[C@H]2C[C@H](C/C=C\CCCC(=O)O)[C@@H](NC(=O)c3csc4ccc(O)cc34)[C@@H]1C2 [Compound A, (Z)-7-[(1R,2R,3S,5S)-2-(5-hydroxybenzo[b]thiophen-3-ylcarbonylamino)-10-norpinan-3-yl]-5-heptenoic acid]
- solubility at 3 h (Water, 3 hours, final pH 5.81): 5.56 µg/mL (≈ 12.6 µM)
- solubility at 6 h (Water, 6 hours, final pH 5.81): 5.93 µg/mL (≈ 13.4 µM)
- solubility at 3 h (jp-2 solution, JP-2 Sol., 3 hours, final pH 6.84): 81.1 µg/mL (≈ 184 µM)
- solubility at 6 h (jp-2 solution, JP-2 Sol., 6 hours, final pH 6.84): 81.7 µg/mL (≈ 185 µM)
- solubility at 3 h (ph 6.0 test solution, pH6.0, 3 hours, final pH 6.08): 15.2 µg/mL (≈ 34.4 µM)
- solubility at 6 h (ph 6.0 test solution, pH6.0, 6 hours, final pH 6.08): 15.6 µg/mL (≈ 35.3 µM)
- solubility at 3 h (ph 7.8 test solution, pH7.8, 3 hours, final pH 7.6): 488 µg/mL (≈ 1100 µM)
- solubility at 6 h (ph 7.8 test solution, pH7.8, 6 hours, final pH 7.6): 489 µg/mL (≈ 1110 µM)
- solubility at 3 h (ph 8.0 test solution, pH8.0, 3 hours, final pH 7.76): 653 µg/mL (≈ 1480 µM)
- solubility at 6 h (ph 8.0 test solution, pH8.0, 6 hours, final pH 7.76): 676 µg/mL (≈ 1530 µM)
- solubility at 3 h (ph 8.5 test solution, pH8.5, 3 hours, final pH 8.29): 6200 µg/mL (≈ 14000 µM)
- solubility at 6 h (ph 8.5 test solution, pH8.5, 6 hours, final pH 8.29): 6220 µg/mL (≈ 14100 µM)
